Test results reported in patent US11427783B2, “Perfuming compositions” (Firmenich SA, priority 2016, dated 2022).
Several values for one entry are separate records, joined by “and”; a condition that tells them apart may be missing. Equal entries are not always repeated. Where two headings read alike, the source gives them in different places. Blank lines part the entries; values can stand above or below the molecule they belong to.

Legend:
[1] = Volatility of perfuming compounds in air; type: physicochemical; settings: for Volatility: Table 5, perfuming compounds having a green note
[2] = Table 10, perfuming compounds having a woody note
[3] = Table 6, perfuming compounds having a fruity note
[4] = Table 9, perfuming compounds having a gourmand note
[5] = Table 8, perfuming compounds having a sweet note

Structure (SMILES): CC1(C)CC=C(CCC=O)CC1
- logP (physchem; n-octanol/water): 3.3
- Volatility [1]: 417.92 μg/l air

Structure (SMILES): CCC(=O)O[C@H]1C[C@@H]2CC[C@@]1(C)C2(C)C
- logP (physchem; n-octanol/water): 4.66
- Volatility (μg/l air) [1, 2]: 216.42 μg/l air

Structure (SMILES): C/C=C/C(=O)C1=C(C)C=CCC1(C)C
- logP (physchem; n-octanol/water): 3.27
- Volatility (μg/l air) [1, 3]: 119.10 μg/l air and 91.38 μg/l air
- Volatility (μg/l air) [1, 2]: 91.38 μg/l air

Structure (SMILES): CC(C)[C@@H]1CC[C@@H](C)CC1=NO
- logP (physchem; n-octanol/water): 2.81
- Volatility [1]: 22.29 μg/l air

Structure (SMILES): C[C@@H]1CC[C@H]2[C@H](C)C(=O)O[C@@H]2C1
- logP (physchem; n-octanol/water): 2.11
- Volatility (μg/l air) [1, 4]: 74.03 μg/l air

Structure (SMILES): C/C=C(\C)C(=O)OCC/C=C\CC
- logP (physchem; n-octanol/water): 3.96
- Volatility [1]: 168.78 μg/l air

Structure (SMILES): CC/C(=C\C[C@H]1CC=C(C)C1(C)C)CO
- logP (physchem; n-octanol/water): 4.44
- Volatility (μg/l air) [1, 2]: 2.75 μg/l air

Structure (SMILES): COC(C)(C)[C@H]1CC=C(C)CC1
- logP (physchem; n-octanol/water): 4.59
- Volatility [1]: 993.39 μg/l air

Structure (SMILES): CC1COCc2cc3c(cc21)C(C)(C)C(C)C3(C)C (racemic)
- logP (physchem): 6.57
- Volatility (μg/l air) [1, 3]: 1.59 μg/l air

Structure (SMILES): CC(=O)/C=C/C1C(C)=CCCC1(C)C (racemic)
- logP (physchem): 4.06
- Volatility [1]: 68.11 μg/l air

Structure (SMILES): O=C1CCCCCCCCCCC(=O)OCCO1 [1,4-dioxacyclohexadecane-5,16-dione]
- logP (physchem; n-octanol/water): 3.83
- Volatility (μg/l air) [1, 5]: 0.46 μg/l air

Structure (SMILES): C/C=C/c1ccc(OC)cc1 [1-methoxy-4-[(1E)-1-propen-1-yl]benzene]
- logP (physchem): 3.58
- Volatility (μg/l air) [1, 5]: 184.60 μg/l air
- Volatility (μg/l air) [1, 4]: 184.60 μg/l air

Structure (SMILES): O=C1CCC2(CCCCC2)O1 [1-oxaspiro[4.5]decan-2-one]
- logP (physchem; n-octanol/water): 1.66
- Volatility (μg/l air) [1, 4]: 62.86 μg/l air

Structure (SMILES): OCCc1ccccc1 [2-PHENYLETHANOL]
- Volatility (μg/l air) [1, 5]: 159.75 μg/l air
- Volatility (μg/l air) [1, 4]: 159.75 μg/l air

Structure (SMILES): CC(=O)OCCc1ccccc1 [2-PHENYLETHYL ACETATE]
- Volatility (μg/l air) [1, 5]: 201.26 μg/l air
- Volatility (μg/l air) [1, 4]: 201.26 μg/l air

Structure (SMILES): CC(C)C(=O)OCCc1ccccc1 [2-PHENYLETHYL ISOBUTYRATE]
- Volatility (μg/l air) [1, 3]: 67.38 μg/l air
- Volatility (μg/l air) [1, 5]: 67.38 μg/l air
- Volatility (μg/l air) [1, 4]: 67.38 μg/l air

Structure (SMILES): CC(C)(C)C(=O)OCCc1ccccc1 [2-PHENYLETHYL PIVALATE]
- Volatility (μg/l air) [1, 3]: 71.44 μg/l air
- Volatility (μg/l air) [1, 5]: 71.44 μg/l air
- Volatility (μg/l air) [1, 4]: 71.44 μg/l air

Structure (SMILES): COc1ccc(OC)c(C(C)(C)C)c1 [2-TERT-BUTYL-1,4-DIMETHOXYBENZENE]
- Volatility (μg/l air) [1, 2]: 82.95 μg/l air

Structure (SMILES): CC(=O)OCCC(C)CCC=C(C)C (stereo not shown) [3,7-DIMETHYL-6-OCTENYL ACETATE]
- Volatility (μg/l air) [1, 3]: 128.72 μg/l air

Structure (SMILES): CCCC=C1OC(=O)c2ccccc21 [3-BUTYLIDENE-1-BENZO[C]FURANONE]
- Volatility (μg/l air) [1, 5]: 14.37 μg/l air
- Volatility (μg/l air) [1, 4]: 14.37 μg/l air

Structure (SMILES): Cc1occc(=O)c1O [3-HYDROXY-2-METHYL-4(4H)-PYRANONE]
- Volatility (μg/l air) [1, 3]: 92.42 μg/l air
- Volatility (μg/l air) [1, 5]: 92.42 μg/l air

Structure (SMILES): CC(C)CCOCCc1ccccc1 [3-METHYLBUTYL 2-PHENYLETHYL ETHER]
- Volatility (μg/l air) [1, 3]: 110.11 μg/l air
- Volatility (μg/l air) [1, 5]: 110.11 μg/l air
- Volatility (μg/l air) [1, 4]: 110.11 μg/l air

Structure (SMILES): CCOc1cc(C=O)ccc1O [3-ethoxy-4-hydroxybenzaldehyde]
- logP (physchem): 1.27
- Volatility (μg/l air) [1, 5]: 0.11 μg/l air

Structure (SMILES): CC(=O)CCc1ccc(O)cc1 [4-(4-HYDROXY-1-PHENYL)-2-BUTANONE]
- Volatility (μg/l air) [1, 3]: 0.36 μg/l air

Structure (SMILES): COc1ccc(CCC(C)=O)cc1 [4-(4-METHOXYPHENYL)-2-BUTANONE]
- Volatility (μg/l air) [1, 3]: 5.58 μg/l air
- Volatility (μg/l air) [1, 5]: 5.58 μg/l air
- Volatility (μg/l air) [1, 4]: 5.58 μg/l air

Now from value to molecule:

- logP (physchem; n-octanol/water): 5.42
- Volatility (μg/l air) [1, 2]: 2.34 μg/l air
Structure (SMILES): CCCC(O)CC[C@@H]1[C@@H](C)CCCC1(C)C (mixture of isomers)

- logP (physchem; n-octanol/water): 6.44
- Volatility (μg/l air) [1, 2]: 8.25 μg/l air
Structure (SMILES): CC(=O)O[C@@H]1C(C)(C)CCC[C@]12CC=C(C)C[C@H]2C (racemic)

- logP (physchem; n-octanol/water): 5.5
- Volatility (μg/l air) [1, 2]: 14.41 μg/l air
Structure (SMILES): CC(=O)O[C@@H]1CC[C@@H]2C(C)(C)CCC[C@@]2(C)C1 (racemic)

- logP (physchem; n-octanol/water): 3.59
- Volatility [1]: 23116.66 μg/l air
Structure (SMILES): C=CC1(C)CCCC(C)(C)O1 (racemic)

- logP (physchem; n-octanol/water): 4.63
Structure (SMILES): CCCCCC1(C)CCC(C)(C)C1=O (racemic)

- logP (physchem; n-octanol/water): 4.68
- Volatility (μg/l air) [1, 2]: 5.22 μg/l air
Structure (SMILES): CC1=CCC(CCC(C)C(C)O)C1(C)C (racemic)

- logP (physchem): 5.39
- Volatility (μg/l air) [1, 2]: 11.83 μg/l air
Structure (SMILES): CC1CCC2C(C)(C)C3CC12CCC3(C)O (racemic)

- logP (physchem; n-octanol/water): 3.93
Structure (SMILES): C=C1CCCC(C)(C)C1C(=O)OC (racemic)

- logP (physchem; n-octanol/water): 2.33
- Volatility (μg/l air) [1, 3]: 1.59 μg/l air
Structure (SMILES): CC/C=C\C[C@H]1C(=O)CC[C@@H]1CC(=O)OC (racemic)

- logP (physchem; n-octanol/water): 2.33
- Volatility [1]: 3030.11 μg/l air
Structure (SMILES): C=CC(O)CCCCC (racemic) [(+−)-1-octen-3-ol]

- logP (physchem; n-octanol/water): 1.74
- Volatility [1]: 142.19 μg/l air
Structure (SMILES): CC(CO)c1ccccc1 (racemic) [(+−)-2-phenyl-1-propanol]

- logP (physchem; n-octanol/water): 3.82
- Volatility (μg/l air) [1, 3]: 1.44 μg/l air
Structure (SMILES): CCCCCCCCC1CCC(=O)O1 (racemic) [(+−)-5-octyldihydro-2(3H)-furanone]

- logP (physchem; n-octanol/water): 6.68
- Volatility (μg/l air) [1, 2]: 5.04 μg/l air
Structure (SMILES): CCOC(C)OC1CCCCCCCCCCC1 (racemic) [(+−)-(1-ethoxyethoxy)cyclododecane]

- logP (physchem; n-octanol/water): 2.77
- Volatility (μg/l air) [1, 2]: 755.28 μg/l air
Structure (SMILES): CC(C)(C)C1CCC(=O)CC1 [4-(2-methyl-2-propanyl)cyclohexanone]
